Source: patent US20250281629A1, “COMPOSITIONS AND METHODS FOR ANTI-PHOSPHOCHOLINE ACTIVE IMMUNOTHERAPY” (Duke University, priority 2022, published 2025)
Where no end group is shown, it is not given here.

Columns and labels:
Type in all cases: in vivo, mouse
[1] = system: occludin; test: Immunofluorescence of colon tight junction protein occludin; conditions: week 5; vs PBS control mice
Experimental: Immunofluorescence Imaging and Analysis. Immunofluorescence was conducted on sections from proximal colon samples frozen in OCT and sectioned. Slides were first thawed and outlined with a hydrophobic pen (ImmEdge Hydrophobic Barrier PAP Pen, Vector Labs, H-4000) then fixed with 4% paraformaldehyde for 10 min at room temperature. The slides were washed three times with wash buffer (1×PBS+100 mM CaCl2+100 mM MgCl) for 10 min at room temperature then incubated in a blocking solution containing 0.3% Triton X-100 and 10% normal donkey serum in 1×PBS+100 mM CaCl2+100 mM MgCl for 1 h at room temperature. The slides were then incubated in the primary antibodies (rat anti-ZO-1, clone R40.70, Fisher Scientific, MABT11; rabbit anti-occludin, clone EPR20992, Abcam, ab216327) diluted 1:100 in the blocking solution overnight at 4° C. The slides were washed three times with wash buffer for 10 min at room temperature. They were then incubated in the secondary antibodies (donkey anti-rat Alexa Fluor™ 568, Thermo Fisher, A78946; donkey anti-rabbit Alexa Fluor™ 647, Thermo Fisher, A31573) and nuclear marker DAPI diluted 1:500 in the blocking solution for 2 h at room temperature. […] The intensities of each marker were quantified using ImageJ and expressed as the integrated density of the fluorescent signal normalized to the area fraction of DAPI positive pixels. […]

[2] = system: C57BL/6 mice; test: Therapeutic DSS colitis model (immunization between DSS cycles)
Source text: DSS-Induced Colitis and Assessment. Before inducing colitis, mice from each treatment group were divided amongst the cages to avoid any cage-related disease effects. This excluded the PBS without DSS (healthy) control mice which remained in their own cage and received normal drinking water for the duration of the experiment. Colitis was induced by administering 2% (w/v) colitis-grade dextran sodium sulfate (MP Biomedicals, 160110) in drinking water. For determination of prophylactic immunization efficacy, mice were immunized i.p. 3 times at days −35, −21 and −7 before colitis induction on Day 0. Chronic colitis was induced via DSS-containing water given for 5 days followed by 5 days of normal drinking water for 3 cycles, resulting in a 30-day model. A shorter, acute DSS-induced colitis model consisting of one cycle of colitis was achieved by giving 5 days of 2% DSS in water followed by 5 days of normal drinking water for a total of 10 days and was also examined in a preventative immunization scenario. Mice were weighed daily and evaluated for the IACUC approved humane endpoint of >30% weight loss as DSS mice regain weight quickly after DSS administration ceases. They were also monitored for occult blood with Hemoccult tape and developer (Beckman Coulter, 63202) and fecal consistency. […] At the experimental endpoint, mice were euthanized, and colon lengths were measured from the base of the cecum to the rectum using digital calibrators. […] Mice were monitored daily as described above until they on average regained their original body weight on day 20. […] The entire therapeutic model ended on day 60, and colon lengths were measured as described above.
FITC-dextran Measurements. […] To determine the intestinal barrier permeability, serum samples were diluted in 1×PBS and FITC fluorescence intensity was measured at an excitation of 488 nm and emission of 520 nm. […]
Spleen Bacteria Measurements. […] After a 48 hr incubation at 37° C., colony forming units (CFUs) were counted and converted to CFU/g of spleen tissue via the equations: […]

[3] = system: C57BL/6 mice; test: One cycle acute DSS-induced colitis, female and male mice
Source text: DSS-Induced Colitis and Assessment. Before inducing colitis, mice from each treatment group were divided amongst the cages to avoid any cage-related disease effects. This excluded the PBS without DSS (healthy) control mice which remained in their own cage and received normal drinking water for the duration of the experiment. Colitis was induced by administering 2% (w/v) colitis-grade dextran sodium sulfate (MP Biomedicals, 160110) in drinking water. For determination of prophylactic immunization efficacy, mice were immunized i.p. 3 times at days −35, −21 and −7 before colitis induction on Day 0. Chronic colitis was induced via DSS-containing water given for 5 days followed by 5 days of normal drinking water for 3 cycles, resulting in a 30-day model. A shorter, acute DSS-induced colitis model consisting of one cycle of colitis was achieved by giving 5 days of 2% DSS in water followed by 5 days of normal drinking water for a total of 10 days and was also examined in a preventative immunization scenario. Mice were weighed daily and evaluated for the IACUC approved humane endpoint of >30% weight loss as DSS mice regain weight quickly after DSS administration ceases. They were also monitored for occult blood with Hemoccult tape and developer (Beckman Coulter, 63202) and fecal consistency. Disease activity index (DAI) scores were a combination of weight loss (≥100%=0, 90-99%=1, 80-89%=2, […]), occult blood (no blood=0, blood=3), and fecal consistency (hard=0, soft=1, softer=2, runny=3), with a possible daily maximum score of 9. […] At the experimental endpoint, mice were euthanized, and colon lengths were measured from the base of the cecum to the rectum using digital calibrators. To determine immunization efficacy in a therapeutic colitis setting, colitis was first induced by administering one cycle of colitis achieved by 5 days of 2% DSS in water followed by 5 days of normal drinking water for a total of 10 days. Mice were monitored daily as described above until they on average regained their original body weight on day 20. At this point, i.p. immunizations were initiated and given three times over a 4-week period on days 20, 32, and 45, and colitis monitoring was reduced to twice weekly. An additional cycle of colitis was then induced on day 51 via 5 days of 2% DSS in water followed by 5 days of normal drinking water for a total of 10 days with daily monitoring. The entire therapeutic model ended on day 60, and colon lengths were measured as described above.
Spleen Bacteria Measurements. At the conclusion of the DSS experiments, spleens were harvested and weighed followed by homogenization in 500 μL of 0.1% Triton X-100 in sterile 1×PBS using a Tissue Tearer handheld homogenizer (Biospec Products). 25 μL of homogenate solution was then spread on each quarter of culture plates consisting of tryptic soy broth No. 2 (Sigma, 51228) and Difco agar, granulated (BD Biosciences, 214530) in dilutions from 100 to 103. After a 48 hr incubation at 37° C., colony forming units (CFUs) were counted and converted to CFU/g of spleen tissue via the equations: […]
Colon IL-10 Quantification. At the conclusion of some DSS experiments, one half of the harvested mouse colons were flushed with PBS to remove fecal matter and flash frozen in liquid nitrogen. Later, colons were thawed on ice, weighed, and homogenized in 2 μL/mg of Tissue Extraction Reagent I (Thermo Fisher, FNN0071) with a protease inhibitor tablet (Thermo Fisher, A32955) using a Navy Bead Lysis Kit (Next Advance, NAVYE1). The amount of IL-10 in colon homogenate supernatants was then measured using an IL-10 mouse ELISA kit (Invitrogen, 88-7105-22) in accordance with the manufacturer's protocol.

(C11H22NO6P)n-CCCCSGSG-QQKFQFQFEQQ-NH2 (CCCCSGSGQQKFQFQFEQQ-NH2; not fully specified; cysteine pairing not given here; also: phosphorylcholine groups (C11H22NO6P) n=1-4, attachment not placed) [PCM-Q11, linear multi-PC conjugate]
occludin levels in colon after immunization [1]: not significantly different | anti-PC IgG responses in mice with prior DSS colitis ([2]; i.p. days 20, 32, 45, without CpG, vs immunization in absence of prior colitis): higher anti-PC IgG responses | IgG subclasses in mice with prior DSS colitis ([2]; mouse, in vivo): not altered | anti-PC IgM response in mice with prior DSS colitis ([2]; without CpG): measurable anti-PC IgM response | colon lengths ([3]; both sexes, vs CpG-immunized mice and DSS disease controls): increased colon lengths | serum anti-PC IgM, female mice ([3]; female): undetectable | spleen colony forming units (CFUs), female mice ([3]; female): dramatically decreased spleen colony forming units (CFUs) | colon IL-10 levels, male mice ([3]; male): not significantly reduced compared to healthy controls | serum anti-PC IgM, male mice ([3]; male): significantly less anti-PC IgM than PCM-Q11/CpG | spleen CFUs / bacterial spread, male mice ([3]; male): This trend was also present, though not statistically significant | protective efficacy / disease metrics, female mice ([3]; one cycle 2% DSS, 10 days, female): significant protective efficacy | weight loss and disease activity index scores, male mice ([3]; one cycle 2% DSS, male): improved weight loss and disease activity index scores
